The values below come from patent US8658646B2, “Pyrrolopyrazine kinase inhibitors” (Hoffmann-LaRoche Inc., priority 2011, dated 2014).

This test concerns the target T1, JAK3: Recombinant human kinase domain (Homo sapiens, UniProt P52333).
T1 construct: JAK3: Recombinant human kinase domain from Millipore (Cat #14-629) or prepared; purchased Millipore 14-629
As to the kind of experiment: Determination of IC50 of Janus Kinase (JAK) inhibition, radioactive end-point 33P-ATP assay, JAK3. Format: biochemical. The settings on record: ATP 1.5 uM, peptide 50 uM, 20 minutes, read-out: JAK3-INHIB-DR/v1~NO ADDITIVE~Enzyme_Conc = 100.

T1 sequence (P52333 822-1111 limits assumed): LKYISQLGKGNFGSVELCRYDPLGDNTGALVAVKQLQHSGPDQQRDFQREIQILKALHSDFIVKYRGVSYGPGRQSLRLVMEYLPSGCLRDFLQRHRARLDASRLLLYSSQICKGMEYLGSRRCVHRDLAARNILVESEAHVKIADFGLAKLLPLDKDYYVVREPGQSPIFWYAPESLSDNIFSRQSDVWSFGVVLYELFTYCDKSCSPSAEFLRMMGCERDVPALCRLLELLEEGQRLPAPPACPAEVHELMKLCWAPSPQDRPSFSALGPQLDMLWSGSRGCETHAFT

For the compound `COC[C@H](C)NC(=O)c1c[nH]c2ncc(-c3nn(CCN4CCOCC4)c4cc(Cl)ccc34)nc12` [Example I-236, 2-[6-Chloro-1-(2-morpholin-4-yl-ethyl)-1H-indazol-3-yl]-5H-pyrrolo[2,3-b]pyrazine-7-carboxylic acid ((S)-2-methoxy-1-methyl-ethyl)-amide], the IC50 amounted to 0.805 nM.

With `C[C@@H](NC(=O)c1c[nH]c2ncc(-c3nn(CC(=O)N4CCOCC4)c4cc(Cl)ccc34)nc12)C(=O)N1CC(C#N)C1` [Example I-228, 2-[6-Chloro-1-(2-morpholin-4-yl-2-oxo-ethyl)-1H-indazol-3-yl]-5H-pyrrolo[2,3-b]pyrazine-7-carboxylic acid [(R)-2-(3-cyano-azetidin-1-yl)-1-methyl-2-oxo-ethyl]-amide], the IC50 is 2.11 nM.

Take `C[C@@H](O)[C@@H](CO)NC(=O)c1c[nH]c2ncc(-c3nn(C)c4cc(F)ccc34)nc12` [Example I-176, 2-(6-Fluoro-1-methyl-1H-indazol-3-yl)-5H-pyrrolo[2,3-b]pyrazine-7-carboxylic acid ((1R,2R)-2-hydroxy-1-hydroxymethyl-propyl)-amide]: the IC50 came to 165 nM.

Turning to `C[C@@H](NC(=O)c1c[nH]c2ncc(-c3nn(C)c4cc(Cl)ccc34)nc12)[C@H]1C[C@H]1C#N` (single isomer, unassigned) [Example I-207], the IC50 came to 5.45 nM.

On to `Cn1nc(-c2cnc3[nH]cc(C(=O)N[C@@H]4CCCN(S(C)(=O)=O)C4)c3n2)c2ccc(Cl)cc21` [Example I-15, 2-(6-Chloro-1-methyl-1H-indazol-3-yl)-5H-pyrrolo[2,3-b]pyrazine-7-carboxylic acid ((R)-1-methanesulfonyl-piperidin-3-yl)-amide], for which the IC50 worked out at 13.6 nM.

For the compound `Cn1nc(-c2cnc3[nH]cc(C(=O)N[C@H](c4ccc(Br)cc4)C(F)(F)F)c3n2)c2ccc(F)cc21` [Example I-211, 2-(6-Fluoro-1-methyl-1H-indazol-3-yl)-5H-pyrrolo[2,3-b]pyrazine-7-carboxylic acid [(R)-1-(4-bromo-phenyl)-2,2,2-trifluoro-ethyl)-amide], the IC50 was over 1000 nM.

Take `C[C@@H](NC(=O)c1c[nH]c2ncc(-c3nn(C)c4cc(Cl)cc(Cl)c34)nc12)C(=O)N1CC(C#N)C1` [Example I-97, 2-(4,6-Dichloro-1-methyl-1H-indazol-3-yl)-5H-pyrrolo[2,3-b]pyrazine-7-carboxylic acid [(R)-2-(3-cyano-azetidin-1-yl)-1-methyl-2-oxo-ethyl]-amide]: the IC50 was 57.1 nM.

As to `C[C@H](NC(=O)c1c[nH]c2ncc(-c3nn(C)c4ccc(Cl)cc34)nc12)C(C)(C)C` [Example I-11, 2-(5-Chloro-1-methyl-1H-indazol-3-yl)-5H-pyrrolo[2,3-b]pyrazine-7-carboxylic acid ((S)-1,2,2-trimethyl-propyl)-amide], the IC50 came to 1.77 nM.

For `COC[C@H](C)NC(=O)c1c[nH]c2ncc(-c3ncn4cc(F)ccc34)nc12` [Example I-41, 2-(6-Fluoro-imidazo[1,5-a]pyridin-1-yl)-5H-pyrrolo[2,3-b]pyrazine-7-carboxylic acid ((S)-2-methoxy-1-methyl-ethyl)-amide], the IC50 amounted to 0.375 nM.

As to `C[C@@H](NC(=O)c1c[nH]c2ncc(-c3nn(C)c4c3CCC(C)(C)C4)nc12)C(=O)N1CC(C#N)C1` [Example I-70, 2-(1,6,6-Trimethyl-4,5,6,7-tetrahydro-1H-indazol-3-yl)-5H-pyrrolo[2,3-b]pyrazine-7-carboxylic acid [(R)-2-(3-cyano-azetidin-1-yl)-1-methyl-2-oxo-ethyl]-amide], the IC50 turned out to be 29.8 nM.

Take `CC(C)NC(=O)c1c[nH]c2ncc(-c3nn(C)c4cc(Cl)ccc34)nc12` [Example I-108, 2-(6-Chloro-1-methyl-1H-indazol-3-yl)-5H-pyrrolo[2,3-b]pyrazine-7-carboxylic acid isopropylamide]: the IC50 came to 7.05 nM.
